Data published in article PMC4198064 (ACS Chemical Neuroscience, 2014).

Tested on: HDAC subtypes 1, 2, 3, and 6
Assay: [11C]martinostat PET imaging of whole rat brain, blocked tracer binding
Assay type: in vivo

Row | SMILES | blockade of [11C]martinostat uptake in whole brain (500 mg/kg ip, 30 min prior to tracer) | blockade of [11C]martinostat binding in whole brain (subtype-selective benzamides, ip pretreatment)
1 | CCCC(CCC)C(=O)O [sodium valproate] | 16% | 
2 | Nc1cc(F)ccc1NC(=O)/C=C/c1cnn(C/C=C/c2ccccc2)c1 [RGFP966] |  | 7–10%
